Consider 1 molecule from patent US20150125550A1, “APPLICATION OF 2,9-DI-SEC-BUTYL-1,10-PHENANTHROLINE AS A GLIOBLASTOMA TUMOR CHEMOTHERAPY” (priority 2013, published 2015).

Where two headings read alike, the source gives them in different places.

What all share (assay type): cell-based, murine (C57BL/6)
Experiment [1] relates to GL-26 glioma cells. Briefly: SRB recovery assay (48 hr drug, then 48 hr fresh media). As to conditions: 48 hr drug + 48 hr recovery. The protocol: (§1) The sulforhodamine B (SRB) cytotoxicity assays were adapted from Skehan et al. (22). Briefly, either HFF, primary astrocytes or GL-26 cells were plated in 96-well plates at a density of 4,000 cells/well in a volume of 100 µL overnight at 37° C. and 5% CO2. DMSO stock solutions of SBP, MSBP or TMZ were used at a concentration range of 0.1-25 μM for 48 hr before the supernatant was discarded and the cells were fixed for 1 hr with 10% cold trichloroacetic acid (100 μL, per well). Cells used in recovery assay received fresh media for 48 hrs following the 48 hr drug incubation. The plate was then washed 5 times with de-ionized water, air dried, and stained with 0.4% SRB for 10 min (50 μL, per well). After washing 5 times in 1% acetic acid and air-drying, bound SRB was dissolved in 10 mM unbuffered Tris base (pH 10.5; 100 μL, per well). Bound SRB was then read by absorbance at 492 nm on a SpectraMax plate reader (Molecular Devices). The percent survival was then calculated based upon the absorbance values relative to control wells (0 μM SBP in 0.1% DMSO).
To test if constant SBP administration is necessary to maintain growth inhibition, an SRB recovery assay was performed where GL-26 cells were plated and treated as above, but SBP was removed after a 48-hour incubation and replaced by fresh media. […]
For orientation: Sulforhodamine B stains cellular protein and so reports cell mass.

Experiment [2] has as its system GL-26 glioma cells. The experiment can be described thus: SRB growth assay, GL-26 glioma cells, 48 hr drug incubation. As to conditions: for IC50: SRB, read-out: IC50 against GL-26 tumor cells. The protocol: The murine (C57BL/6) glioma cell line, GL-26, which is highly tumorigenic in the C57BL/6 mice. GL-26 cells were cultured in DMEM/F12 supplemented with 10% FCS, 1% penicillin/streptomycin, 1% L-glutamine and 1% non-essential amino acids. Human foreskin fibroblasts (HFFs) were cultured in DMEM/F12 supplemented with 10% FCS and 1% penicillin/streptomycin. Primary murine astrocytes were purified from C57BL/6 neonate brains and cultured in DMEM/F12 supplemented with 10% FCS, 1% non-essential amino acids, 1% Lglutamine, 50 IU/ml penicillin, […] and 10 mM Hepes buffer.
as §1

Experiment [3] has as its system GL-26 glioma cells. The experiment can be described thus: Propidium iodide cell cycle analysis by flow cytometry. To be noted: SBP 48 hours. The procedure: GL-26 cells were plated at 4000 cells/well in a 96 well plate in GL-26 media (DMEM/F12 supplemented with 10% FCS, 1% penicillin/streptomycin, 1% L-glutamine and 1% non-essential amino acids). The cells were treated 1 day post-plating with 0.1-25 μM SBP for 48 hours. The cells were then detached with Trypsin/EDTA (Cellgro), washed and resuspended at 500,000 cells/ml in ice cold Na+/K+ balanced PBS and fixed by gently adding 70% ethanol and incubating for 2 hrs at 4° C. GL-26 cells were then resuspended in 300-500 μl PI/Triton X-100 staining solution: 10 ml of 0.1% (v/v) Triton X-100 (Sigma) in Na+/K+ balanced PBS with 2 mg DNAse-free RNAse A (Sigma) and 0.40 ml of 500 μg/ml PI (Roche). The stain was allowed to incubate at 37° C. for 15 minutes before acquisition on a BD FacsCanto II flow cytometer.
In general terms: In flow cytometry, cells or beads pass a laser one at a time.

Experiment [4] has as its system GL-26 murine glioma cells. The experiment can be described thus: SRB growth assay of SBP and gold complexes on GL-26 (Example 4). To be noted: Mus musculus, GL26, 48 hr, read-out: concentration inhibiting GL-26 by 50%. The protocol: The murine (C57BL/6) glioma cell line, GL-26, which is highly tumorigenic in the C57BL/6 mice, was used. GL-26 cells were cultured in DMEM/F12 supplemented with 10% FCS, 1% penicillin/streptomycin, 1% L-glutamine and 1% non-essential amino acids. Human foreskin fibroblasts (HFFs) were cultured in DMEM/F12 supplemented with 10% FCS and 1% penicillin/streptomycin. Primary murine astrocytes were purified from C57BL/6 neonate brains and cultured in DMEM/F12 supplemented with 10% FCS, 1% non-essential amino acids, 1% L-glutamine, 50 IU/ml penicillin, […] and 10 mM Hepes buffer.
as §1, with “al (21).” for “al. (22).”, “μL” for “μL,”, “The plate was then washed 5 times with de-ionized water, air dried, and stained with 0.4% SRB for 10 min (50 μL, per well). After washing 5 times in 1% acetic acid and air-drying, bound SRB was dissolved in 10 mM unbuffered Tris base (pH 10.5; 100 μL, per well).” left out

As usually defined, the inhibition is the share of the control response that was lost under treatment.

`CCC(C)c1ccc2ccc3ccc(C(C)CC)nc3c2n1` (centres unmarked) [Compound 1, 2,9-di-sec-butyl-1,10-phenanthroline]: the “GL-26 cell growth inhibition 48 hours after completion of treatment” value in experiment [1] (0.8 mM SBP (so in the source)) is given as 31.5±6.6%. In addition, the “GL-26 cell growth inhibition after extra incubation period” value in experiment [1] (1.6-25 mM SBP (so in the source)) was “up to 85.4±0.2%”. The inhibition at 6 µM in experiment [2] (Mus musculus, GL26, 6 μM, read-out: GL-26 cell growth inhibition) turned out to be 66 ± 1%. The inhibition at 25 µM in experiment [2] (Mus musculus, GL26, 25 μM, read-out: GL-26 cell growth inhibition) is 67 ± 0.5%. In addition, the IC50 in experiment [2] (Mus musculus, GL26, 48 h) was 3 to 6 µM; in experiment [2] (listed as SBP), 3 µM; in experiment [4], 0.8 to 1.6 µM. Further, in experiment [3], the “cell cycle effect (propidium iodide)” value is on record as “not arrested in the G1 phase”.
